This note sets out measurements from article PMC3715890, “A Cyclic Peptide Inhibitor of HIF-1 Heterodimerization That Inhibits Hypoxia Signaling in Cancer Cells” (Journal of the American Chemical Society, 2013).

Entries after “also recorded” stand apart in the source; their conditions may differ.

One test deals with T1, PAS-B domain of HIF-1α (Homo sapiens, UniProt Q16665).
T1 construct: Per-ARNT-Sim-B (PAS-B, amino acids 235–350) domains; His (N); made in house; host or cells: E. coli BL21(DE3)
T1 sequence (Q16665 235-350): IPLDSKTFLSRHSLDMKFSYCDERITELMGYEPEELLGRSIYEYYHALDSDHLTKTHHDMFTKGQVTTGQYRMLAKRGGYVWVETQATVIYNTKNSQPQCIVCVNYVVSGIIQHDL
Description: Isothermal titration calorimetry, PAS-B. It counts as binding. As to conditions: ITC, 25 °C, pH 7.5, 10 µM PAS-B.

For test [1], the system named is CAIX mRNA in hypoxic MCF-7 cells. Description: CAIX mRNA qPCR, MCF-7. As to conditions: MCF-7, hypoxia, 100 μM. It counts as cell-based. How it is done: (§1) Cells were treated with the stated concentrations of inhibitor (P1, P2, or P3) and incubated in normoxia for 4 h, followed by incubation in a hypoxic environment. All manipulation of cell pellets (e.g., lysis, mRNA, and protein extraction) was conducted in a hypoxic environment.
(§2) Total RNA was extracted from MCF-7 and U2OS cells using RNeasy Mini Kit (74104, QIAGEN) and quantified using a Nanodrop ND-1000 spectrophotometer. Complementary DNA was synthesized in a 20 μL reaction containing 1 μg of total RNA, using qScript cDNA SuperMix (95048-100, Quanta Biosciences) according to the manufacturer’s instructions. Quantitative real-time PCRs were performed using Universal Taqman PCR master mix (Applied Biosystems) >and the Taqman gene expression assay of interest (Applied Biosystems) on an ABI StepOnePlus Real-Time PCR system (Applied Biosystems). Expression assays used in this study were HIF-1α (00936376_m1), VEGF-A (Hs00173626_m1), CAIX (Hs00154208_m1), LOX (Hs00942480_m1), HIF2α (Hs01026149_m1), CITED2 (Hs01897804_s1), and 18S (Hs99999901_m1). All expression values were normalized using expression of 18S.

Test [2] relates to VEGF protein in hypoxic U2OS cells. Description: VEGF protein ELISA, U2OS. The test is classed as cell-based, human. Conditions: hypoxia, 100 μM. The method, then:
Cells were treated with the stated concentrations of inhibitor (P1, P2, or P3) and incubated in normoxia for 4 h, followed by incubation in a hypoxic environment. All manipulation of cell pellets (e.g., lysis, mRNA, and protein extraction) was conducted in a hypoxic environment. […]
manufacturer’s instructions.
The loaded beads were washed and blocked with the provide buffers. […]
reagent (RPN2232, GE Healthcare).
Fluorescent binding assay
Scientific, catalogue no. […]
followed by washing with 3 × 200 µL ELISA buffer. 95 µL of EMSA buffer was added to […]
The fluorescence of each well at
Isothermal Titration Calorimetry […]
iTC200 system (GE Healthcare).
P2) was dissolved in the same buffer.
Control experiments for P1 or P2
Quantification of VGEF-A protein by ELISA […]
incubation in hypoxia for 16h. VEGF-A protein concentration was quantified by human
For orientation: An ELISA detects its analyte on a solid surface through an enzyme-linked reagent.

The subject of test [3] is tubule formation in hypoxic human umbilical vein endothelial cells (HUVEC). Description: HUVEC tubularization. As to conditions: 250 μM. The test is classed as cell-based.
The test system of test [4] is CAIX mRNA in hypoxic U2OS cells. Description: CAIX mRNA qPCR, U2OS. The test is classed as cell-based, human. As to conditions: hypoxia, 100 μM. How it is done: as §1, §2
On the technique in general: In qPCR the cycle at which signal appears reflects the starting amount.

The subject of test [5] is VEGF mRNA in hypoxic U2OS cells. Description: VEGF mRNA qPCR, U2OS. Conditions: hypoxia 16 h, 100 μM. The test is classed as cell-based, human. The method, then: as §1, §2
The subject of test [6] is HIF-1 (HIF-dependent luciferase reporter, U2OS-HRE-luc cells). Description: HIF-1-dependent luciferase reporter assay, U2OS-HRE-luc. Conditions: U2OS-HRE-luc. The test is classed as cell-based, human. How it is done:
The ability of P1–P3 to disrupt HIF-1 function in cells was assessed using a HIF-1-dependent luciferase reporter assay.[15],[21] The assay uses human osteosarcoma U2OS cells, stably transfected with a HIF-dependent luciferase reporter construct (U2OS-HRE-luc), where activation of HIF results in an increase in luciferase expression.[15]
Endogenous HIF-1 luciferase reporter assays were conducted as previously reported in U2OS-HRE-luc[15] and MCF-7 cells.[46] For plasmid-expressed HIF-α luciferase reporter assays, MCF-7 and U2OS cells were transiently transfected with plasmids expressing HIF-1α, HIF-2α, or a blank control (pcDNA3.1-HIF-1α, pcDNA3.1-HIF-2α, or pcDNA3.1), a renilla-encoding control (phRL-TK), and a HIF-dependent firefly luciferase reporter construct (pGL2-TK-HRE), using Transfast (Promega) according to the manufacturer’s instructions. After 24 h, cells were recovered and plated (4000 cells/well) in 96-well plates (Perkin-Elmer) and incubated for 5 h before either hypoxic or aerobic incubation in presence or absence of cyclic peptide inhibitors. Firefly and renilla activities were determined using Dual-Glo Reagent (Promega) according to the manufacturer’s instructions. The luciferase signal was normalized using the corresponding renilla values.
as §1

Test [7] deals with endogenous HIF-1α/HIF-1β interaction in MCF-7 cells. Description: In situ proximity ligation assay (PLA), MCF-7. The test is classed as cell-based. As to conditions: 100 μM, MCF-7, hypoxia (1% O2) 4 h.
From the text: The effect of P1 on the endogenous HIF-1α/HIF-1β interaction in intact cells was directly probed using an in situ proximity ligation assay (PLA);[30] primary antibodies (HIF-1α and HIF-1β here) raised in different species are bound by specific secondary antibodies that are tagged with a short DNA strand. The DNA on the interacting PLA probes forms a mini-plasmid that is amplified and bound by a red fluorescent dye. The HIF-1α/HIF-1β interaction is thus visualized as red dots in the DAPI-stained nuclei of MCF-7 and U2OS cells (Figure 4). We observed an increase in PLA signal in MCF-7 cells incubated in hypoxia (1% O2) for 4 h, indicating the expected formation of the HIF-1 dimer in hypoxia (Figure 4, panel 1 versus panel 2). […] The observed effect is not due to a reduction in HIF-1α by P1 (Western blot inset in Figure 4) and thus may be solely attributed to disruption of HIF-1α/HIF-1β dimers.
as §1
Duolink proximity ligation assay was conducted using the in situ PLA Kit (O-Link Bioscience, Uppsala, Sweden) according to the manufacturer’s instructions. […]

On to “Tat-cyclo-CRLMVL (head to tail) [P2, cyclo-CRLMVL tagged with Tat peptide via a disulfide bond; used as negative control]”, for which the “binding to PAS-B domain” value at PAS-B domain of HIF-1α was “no binding; also recorded: did not bind”. Further, the “CAIX mRNA” value in test [1] and in test [4] was “no effect” throughout. In addition, the VEGF protein level result in test [2] is recorded as “has no effect in either cell line”. In addition, the “HUVEC tubularization / tubule length” value in test [3] is “has no effect”. For the same substance, the “VEGF mRNA” value in test [5] is “had no effect”. For the same substance, the “effect on luciferase reporter in hypoxia” value in test [6] (hypoxia (1% O2)) is “did not show an effect”. The “effect on luciferase reporter in normoxia (basal)” value in test [6] (normoxia) is “did not show an effect”. Further, the “HIF-1 PLA signal” value in test [7] was “did not have any effect on the PLA signal”.
